From US20170065670A1, “METHODS FOR TREATING IMMUNE MEDIATED NEUROLOGICAL DISEASES” (Trinity Therapeutics, Inc., priority 2005, published 2017)

What was measured:
human C1q = experiment: Reverse ELISA: inhibition of PAP immune complex binding to C1q coated plates; conditions: summary of Table 1
Excerpt: (§1) For this reason, a “reverse ELISA” technique was used to assess binding of the Fc region to ligands that bind to immune complexed IgG Fc. In these assays, the enzyme (HRP) was not covalently conjugated to the Fc portion of the secondary antibody. Rather, a preformed immune complex of peroxidase-rabbit (or mouse) anti-peroxidase IgG (“PAP” complex) was used. […] In the reverse ELISA system, an Fc CH2-CH3 cleft binding ligand (e.g., purified human C1q) was bound to microwell plates. In the absence of competitor, PAP complexes bound to the immobilized ligand and the reaction between HRP and its substrate produced a signal. This signal was reduced by polypeptides and compounds, such as those provided herein, that inhibited PAP binding to the immobilized ligand.
PAP complexes were formed by mixing 2 μl of rabbit anti-peroxidase (Sigma Chemicals, St. Louis, Mo.) with 50 μl of peroxidase (Sigma-Aldrich, St. Louis, Mo.) in 1 ml distilled water. PAP (100 μl) were pre-incubated with 100 μl of peptide or human C1q (Quidel Corp., San Diego, Calif.) for one hour. The C1q/PAP and peptide/PAP mixtures (100 μl) were then incubated with C1q coated plates for 30 minutes. After washing, plates were incubated with 2-2′-azinobis-3-ethylbenzthiazoline-6-sulfonate (ATBS; Quidel Corp.) for 15 minutes and read at 405 nm.

FcγIIa = experiment: Reverse ELISA: inhibition of PAP immune complex binding to FcγIIa coated plates; conditions: summary of Table 2, FcR overall (FcγIIa, FcγIIb, FcγIII)
Excerpt: as §1
Once the reverse ELISA protocol was established using the C1q assay, the assay was redesigned using FcγIIa, FcγIIb and FcγIII in place of C1q. Highly purified FcγIIa, FcγIIb and FcγIII were immunoadsorbed onto plastic microwells. […]
Falcon microtiter plates were coated with 1:10 dilutions of highly purified FcγIIa, FcγIIb and FcγIII and incubated for 24 hours. […] After washing, plates were incubated with ABTS substrate for 15 minutes and read at 405 nm.

human wtSOD1 = experiment: Reverse ELISA: inhibition of immune complexed IgG (PAP) binding to wt SOD1; conditions: for wt SOD1 (read at 405 nm): plates coated 24 h with 0.8 μg/ml human wtSOD1, PAP/peptide 60 min, lower = more inhibition, positive control 2.900; for inhibition of wt SOD1 binding to PAP (in words): summary of Table 3
Excerpt: as §1
(§2) PAP complexes were formed as described in Example 2. PAP (100 μl) were pre-incubated with 100 μl of peptide for one hour, and control (200 μl of PAP) also was incubated for one hour. 100 μl of either PAP or PAP/peptide was added to Falcon microtiter plates that had been coated for 24 hours with either 0.8 μg/ml human wtSOD1 (Sigma-Aldrich) or apo (non Cu, Zn containing) monomeric mutant SOD1 C57S (mSOD1C57S). The PAP or peptide/PAP mixtures (100 μl) were added after one hour to either wt SOD1 or mSOD1C57S coated plates for 60 minutes. After washing, plates were incubated with ATBS for 15 minutes and read at 405 nm.

[1] = test system: apo (non Cu, Zn containing) monomeric mutant SOD1 C57S (mSOD1C57S); experiment: Reverse ELISA: inhibition of immune complexed IgG (PAP) binding to mutant SOD1; conditions: for mSOD1C57S (read at 405 nm): plates coated 24 h with mSOD1C57S, PAP/peptide 60 min, lower = more inhibition, positive control […]; for inhibition of mSOD1C57S binding to PAP (in words): summary of Table 3
Excerpt: as §1, §2

human wt α-synuclein = experiment: Reverse ELISA: inhibition of immune complexed IgG (PAP) binding to wt α-synuclein
Excerpt: as §1
PAP complexes were formed mixing 2 μl of rabbit anti-peroxidase (Sigma) with 50 μl of peroxidase (Sigma) in 1 ml distilled water. PAP (100 μl) were pre-incubated with 100 μl of peptide for one hour. Control PAP (200 μl) also was incubated for one hour. 100 μl of either PAP or PAP/peptide was added to Falcon microtiter plates that had been coated for 24 or 48 hours with 167 μg/ml human wt α-synuclein (Sigma-Aldrich), and the plates were incubated for 60 minutes. After washing, plates were incubated with ATBS for 30 minutes and then read at 405 nm.

[2] = test system: human wt tau protein (441 residues); experiment: Reverse ELISA: inhibition of immune complexed IgG (PAP) binding to wt tau
Excerpt: as §1
PAP complexes were formed by mixing 2 μl of rabbit anti-peroxidase with 50 μl of peroxidase in 1 ml distilled water. PAP (100 μl) were pre-incubated with 100 μl of peptide for one hour. Control PAP (200 μl) also was incubated for one hour. 100 μl of either PAP or PAP/peptide was added to Falcon microtiter plates that had been coated for 24 hours with 16.7 μg/ml human wt tau protein (441 residues; Sigma-Aldrich). The PAP or peptide/PAP mixtures (100 μl) were added after one hour to tau coated plates and incubated for 60 minutes. After washing, plates were incubated with ATBS for 15 minutes, and read at 405 nm.

Highly purified FcγIIa = Highly purified FcγIIa (UniProt P12318); experiment: reverse ELISA: PAP without peptide on FcγIIa-coated plate
[3] = molecular target: Human wt α-synuclein (Sigma-Aldrich) (human) (UniProt P37840); experiment: reverse ELISA: PAP without peptide on α-synuclein-coated plate (24 h coating)
[4] = test system: human wt β amyloid peptide 1-40; experiment: Reverse ELISA: inhibition of immune complexed IgG (PAP) binding to wt β-amyloid peptide 1-40; conditions: summary of Table 7
Excerpt: as §1
Different fragments of the Aβ peptide contribute to the amyloid plaques pathognomic for AD, and these Aβ fragments appear to stimulate microglial activation and subsequent AD neuropathology. Thus, experiments were conducted to test Aβ 1-40 for binding to immune complexes, and to determine whether the inhibitors described herein can inhibit binding of PAP immune complexes to Aβ peptide. PAP complexes were prepared by mixing 2 μl of rabbit anti-peroxidase with 50 μl of peroxidase in 1 ml distilled water. […] After washing, plates were incubated with ATBS for 15 minutes and read at 405 nm.

[5] = molecular target: Preformed immune complex of peroxidase-rabbit anti-peroxidase IgG (PAP complex) (horseradish) (UniProt P00433); experiment: reverse ELISA competition: peptide pre-incubated with PAP; competitor: immobilised mSOD1C57S
[6] = molecular target: Preformed immune complex of peroxidase-rabbit anti-peroxidase IgG (PAP complex) (horseradish) (UniProt P00433); experiment: reverse ELISA competition: peptide pre-incubated with PAP; competitor: immobilised human wt SOD1
[7] = molecular target: Preformed immune complex of peroxidase-rabbit anti-peroxidase IgG (PAP complex) (horseradish) (UniProt P00433); experiment: reverse ELISA competition: peptide pre-incubated with PAP; competitor: immobilised human wt α-synuclein, plate coated 24 h
[8] = molecular target: Preformed immune complex of peroxidase-rabbit anti-peroxidase IgG (PAP complex) (horseradish) (UniProt P00433); experiment: reverse ELISA competition: peptide pre-incubated with PAP; competitor: immobilised human wt α-synuclein, plate coated 48 h

Chain of Preformed immune complex of peroxidase-rabbit anti-peroxidase IgG (PAP complex) (horseradish) (P00433 31-338, one chain of several): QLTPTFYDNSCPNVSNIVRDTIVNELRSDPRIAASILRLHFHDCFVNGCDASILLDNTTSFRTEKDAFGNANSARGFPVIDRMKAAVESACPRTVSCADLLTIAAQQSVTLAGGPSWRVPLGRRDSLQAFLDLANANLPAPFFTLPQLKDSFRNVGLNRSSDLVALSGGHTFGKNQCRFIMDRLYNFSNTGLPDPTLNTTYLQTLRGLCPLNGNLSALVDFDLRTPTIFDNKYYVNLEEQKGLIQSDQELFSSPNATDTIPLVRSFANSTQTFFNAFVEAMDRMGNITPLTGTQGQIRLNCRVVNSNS
Chain of Preformed immune complex of peroxidase-rabbit anti-peroxidase IgG (PAP complex) (P00433 31-338, one chain of several): as above
Chain of Highly purified FcγIIa (P12318 34-217 limits assumed): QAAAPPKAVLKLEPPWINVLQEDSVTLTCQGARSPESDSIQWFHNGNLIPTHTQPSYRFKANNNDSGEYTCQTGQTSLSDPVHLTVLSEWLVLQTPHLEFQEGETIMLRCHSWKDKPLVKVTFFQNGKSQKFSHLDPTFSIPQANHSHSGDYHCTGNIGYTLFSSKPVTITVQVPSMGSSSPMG

APPDCAWHLGELVWCT
inhibition of C1q binding (rank in words) (human C1q): greatest inhibition | inhibition of FcR binding to PAP (rank in words) (FcγIIa): greatest inhibition | wt SOD1 (read at 405 nm) (human wtSOD1): 0.277 | inhibition of wt SOD1 binding to PAP (in words) (human wtSOD1): greatest inhibition | inhibition of wt SOD1 binding to PAP (in words) (human wtSOD1; listed as peptide 16): best inhibition | mSOD1C57S (read at 405 nm) [1]: 0.226 | inhibition of mSOD1C57S binding to PAP (in words) [1]: greatest inhibition | inhibition of mSOD1C57S binding to PAP (in words) ([1]; listed as peptide 16): best inhibition | Wt α-synuclein (read at 405 nm) (human wt α-synuclein; plates coated 24 h with 167 μg/ml α-synuclein, lower = more inhibition, positive control 1.433, substrate only 0.061): 0.088 | inhibition of α-synuclein binding to PAP (rank in words) (human wt α-synuclein; summary of Table 5): greatest inhibition | Wt tau protein (read at 405 nm) ([2]; plates coated 24 h with 16.7 μg/ml tau, lower = more inhibition, positive control 0.695, substrate only 0.060): 0.059 | inhibition of human wt tau protein binding to PAP (rank in words) ([2]; summary of Table 6): greatest inhibition

APPCARHLGELVWCT
inhibition of C1q binding (rank in words) (human C1q): next best result

Preformed immune complex of peroxidase-rabbit anti-peroxidase IgG (PAP complex) (from UniProt P00433 31-338)
OD 405 nm (Highly purified FcγIIa): 1.6 OD | OD 405 nm [3]: 1.43 OD

DCAWHLGELVWCT
wt SOD1 (read at 405 nm) (human wtSOD1): 0.292 | inhibition of wt SOD1 binding to PAP (in words) (human wtSOD1; listed as peptide 2): inhibited | mSOD1C57S (read at 405 nm) [1]: 0.592 | inhibition of mSOD1C57S binding to PAP (in words) ([1]; listed as peptide 2): inhibited | inhibition of human wt β amyloid peptide binding to PAP (rank in words) [4]: greatest inhibition

APPDCAWHLGELVWCT [Peptide … (SEQ ID NO:16)]
OD 405 nm [5]: 0.226 OD | OD 405 nm [6]: 0.277 OD | OD 405 nm [7]: 0.088 OD | OD 405 nm [8]: 0.136 OD
